Columns and labels:
c-fms = c-fms (Homo sapiens, UniProt P07333); experiment: c-fms autophosphorylation, fluorescence polarization competition immunoassay; type: biochemical; settings: 10 nM c-fms, 1 mM ATP, 5 mM MgCl2, 45 min room temperature; averages of three independent measurements; read-out: c-fms Autophosphorylation IC50
Protocol: Autophosphorylation, Fluorescence Polarization Competition Immunoassay
The assay buffer used was 100 mM 4-(2-hydroxyethyl)piperazine 1-ethanesulfonic acid (HEPES), pH 7.5, 1 mM 1,4-dithio-DL-threitol (DTT), 0.01% (v/v) Tween-20. Compounds were diluted in assay buffer containing 4% dimethylsulfoxide (DMSO) just prior to the assay. […] The kinase reaction was initiated by adding 2 μL of 5 mM ATP (Sigma) in assay buffer. The final concentrations in the assay were 10 nM c-fms, 1 mM ATP, 5 mM MgCl2, 2% DMSO. Control reactions were ran in each plate: in positive and negative control wells, assay buffer (made 4% in DMSO) was substituted for the compound; in addition, positive control wells received 1.2 μL of 50 mM ethylenediaminetetraaceticacid (EDTA).
The plates were incubated at room temperature for 45 min. At the end of the incubation, the reaction was quenched with 1.2 μL of 50 mM EDTA (EDTA was not added to the positive control wells at this point; see above). Following a 5-min incubation, each well received 10 μL of a 1:1:3 mixture of anti-phosphotyrosine antibody, 10×, PTK green tracer, 10× (vortexed), FP dilution buffer, respectively (all from PanVera, cat. # P2837). The plate was covered, incubated for 30 min at room temperature and the fluorescence polarization was read on the Analyst.
The IC50 values shown in Table 1 are averages of three independent measurements.

CSF-1R = CSF-1R (Homo sapiens, UniProt P07333); experiment: Peptide (non-phosphorylated) assay: fluorescence polarization competition immunoassay of CSF-1R phosphorylation of synthetic CSF-1R555-568 peptide; type: biochemical; settings: 0.7 nM CSF-1R, 308 μM […], 1 mM ATP, 5 mM MgCl2, 80 min room temperature; mean of at least three determinations; read-out: c-fms Peptide IC50
CSF-1R, sequence (P07333 20-972): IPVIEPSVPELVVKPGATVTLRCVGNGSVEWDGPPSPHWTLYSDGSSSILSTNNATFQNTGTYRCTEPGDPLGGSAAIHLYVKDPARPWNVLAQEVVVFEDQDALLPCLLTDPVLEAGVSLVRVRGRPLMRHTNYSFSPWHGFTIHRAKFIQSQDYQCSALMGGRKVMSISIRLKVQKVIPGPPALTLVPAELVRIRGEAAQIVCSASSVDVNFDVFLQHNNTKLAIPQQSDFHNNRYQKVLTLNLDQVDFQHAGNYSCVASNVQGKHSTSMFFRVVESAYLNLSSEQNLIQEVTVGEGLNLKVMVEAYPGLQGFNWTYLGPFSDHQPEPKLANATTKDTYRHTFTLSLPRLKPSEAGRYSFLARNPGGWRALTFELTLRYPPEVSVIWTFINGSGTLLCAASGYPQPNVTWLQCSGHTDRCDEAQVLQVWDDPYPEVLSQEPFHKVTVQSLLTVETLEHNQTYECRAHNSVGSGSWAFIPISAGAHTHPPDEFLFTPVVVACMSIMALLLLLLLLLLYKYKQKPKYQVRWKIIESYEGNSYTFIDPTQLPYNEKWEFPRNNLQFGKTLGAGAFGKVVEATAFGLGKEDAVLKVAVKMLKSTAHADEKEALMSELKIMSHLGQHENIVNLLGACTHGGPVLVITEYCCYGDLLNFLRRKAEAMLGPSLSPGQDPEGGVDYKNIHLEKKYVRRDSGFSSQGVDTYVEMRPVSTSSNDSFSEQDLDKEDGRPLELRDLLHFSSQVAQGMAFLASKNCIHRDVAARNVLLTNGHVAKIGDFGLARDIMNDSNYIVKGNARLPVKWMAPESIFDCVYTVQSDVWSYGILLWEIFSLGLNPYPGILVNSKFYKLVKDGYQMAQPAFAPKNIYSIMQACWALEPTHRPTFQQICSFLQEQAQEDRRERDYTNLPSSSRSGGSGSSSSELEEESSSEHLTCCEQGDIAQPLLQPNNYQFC
Protocol: Peptide (Non-Phosphorylated) Assay
The kinase reaction was initiated by adding 1 μL of 10 mM ATP in assay buffer. […] Positive and negative control wells were included on each plate, where 4% DMSO in assay buffer was substituted for the compound; in addition, positive control wells received 1.2 μL of 50 mM EDTA before the start of the reaction.
The plates were covered and incubated at room temperature for 80 min. Reactions were stopped by addition of 1.2 μL of 50 mM EDTA. Each well then received 10 μL of a 1:1:3 mixture of 10× anti-phosphotyrosine antibody, 10×PTK green tracer, and FP dilution buffer, respectively (Cat. # P2837, Invitrogen, Carlsbad, Calif.). The plates were covered, incubated for 30 min at room temperature, and the fluorescence polarization was read on an Analyst plate reader (Molecular Devices).

c-fms, sequence (P07333 20-972): as above

Compound | IC50 (c-fms) [nM] | IC50 (CSF-1R) [nM]
CN(C)CC(O)COc1ccc(Nc2ncc3c(=O)c(C(N)=O)cn(-c4ccc5c(c4)CCC5)c3n2)cc1 (centres unmarked) [Cpd 10, 2-[4-(3-Dimethylamino-2-hydroxy-propoxy)-phenylamino]-8-indan-5-yl-5-oxo-5,8-dihydro-pyrido[2,3-d]pyrimidine-6-carboxylic acid amide] | 13 | 2.7
NC(=O)c1cn(-c2ccc3c(c2)CCC3)c2nc(Nc3cccc(N4CCNCC4)c3)ncc2c1=O [Cpd 52, 8-Indan-5-yl-5-oxo-2-(3-piperazin-1-yl-phenylamino)-5,8-dihydro-pyrido[2,3-d]pyrimidine-6-carboxylic acid amide] | 5 | 0.42
CNC(=O)c1cn(-c2ccc3c(c2)CCC3)c2nc(Nc3ccc(CCN4CCN(C)CC4)cc3)ncc2c1=O [Cpd 47, 8-Indan-5-yl-2-{4-[2-(4-methyl-piperazin-1-yl)-ethyl]-phenylamino}-5-oxo-5,8-dihydro-pyrido[2,3-d]pyrimidine-6-carboxylic acid methyl amide] | 15 | 1.3
CNC(=O)c1cn(-c2ccc3c(c2)CCC3)c2nc(Nc3cccc(N4CC(C)NC(C)C4)c3)ncc2c1=O (centres unmarked) [Cpd 56, 2-[3-(3,5-Dimethyl-piperazin-1-yl)-phenylamino]-8-indan-5-yl-5-oxo-5,8-dihydro-pyrido[2,3-d]pyrimidine-6-carboxylic acid methyl amide] | 10 | 1.1
CC1CN(c2cccc(Nc3ncc4c(=O)c(C(N)=O)cn(-c5ccc6c(c5)CCC6)c4n3)c2)CC(C)N1 (centres unmarked) [Cpd 55, 2-[3-(3,5-Dimethyl-piperazin-1-yl)-phenylamino]-8-indan-5-yl-5-oxo-5,8-dihydro-pyrido[2,3-d]pyrimidine-6-carboxylic acid amide] | 6 | 0.51
NC(=O)c1cn(-c2ccc3c(c2)CCC3)c2nc(Nc3ccc(C4CCNCC4)cc3)ncc2c1=O [Cpd 49, 8-Indan-5-yl-5-oxo-2-(4-piperidin-4-yl-phenylamino)-5,8-dihydro-pyrido[2,3-d]pyrimidine-6-carboxylic acid amide] | 8 | 0.49
CN1CCN(c2ccc(Nc3ncc4c(=O)c(C(N)=O)cn(-c5ccc6c(c5)CCC6)c4n3)cc2)CC1 [Cpd 7, 8-Indan-5-yl-2-[4-(4-methyl-piperazin-1-yl)-phenylamino]-5-oxo-5,8-dihydro-pyrido[2,3-d]pyrimidine-6-carboxylic acid amide] | 13 | 3.9
CNC(=O)c1cn(-c2ccc3c(c2)CCC3)c2nc(Nc3ccc(OCC(O)CN(C)C)cc3)ncc2c1=O (centres unmarked) [Cpd 11, 2-[4-(3-Dimethylamino-2-hydroxy-propoxy)-phenylamino]-8-indan-5-yl-5-oxo-5,8-dihydro-pyrido[2,3-d]pyrimidine-6-carboxylic acid methylamide] | 46 | 5.6
CNC(=O)c1cn(-c2ccc3c(c2)CCC3)c2nc(Nc3cccc(N4CCNCC4)c3)ncc2c1=O [Cpd 53, 8-Indan-5-yl-5-oxo-2-(3-piperazin-1-yl-phenylamino)-5,8-dihydro-pyrido[2,3-d]pyrimidine-6-carboxylic acid methyl amide] | 8 | 0.46
CNC(=O)c1cn(C2CCCCC2)c2nc(Nc3cccc(N4CCN(C)CC4)c3)ncc2c1=O [Cpd 64, 8-Cyclohexyl-2-[3-(4-methyl-piperazin-1-yl)-phenylamino]-5-oxo-5,8-dihydro-pyrido[2,3-d]pyrimidine-6-carboxylic acid methyl amide] | 50 | –

Next, values leading:

IC50 (c-fms) [nM] | IC50 (CSF-1R) [nM] | Compound
– | 0.58 | CC1CN(c2ccc(Nc3ncc4c(=O)c(C(N)=O)cn(-c5ccc6c(c5)CCC6)c4n3)cc2)CC(C)N1 (centres unmarked) [Cpd 43, 2-[4-(3,5-Dimethyl-piperazin-1-yl)-phenylamino]-8-indan-5-yl-5-oxo-5,8-dihydro-pyrido[2,3-d]pyrimidine-6-carboxylic acid amide]
14 | 1.5 | CN1CCN(Cc2cccc(Nc3ncc4c(=O)c(C(N)=O)cn(-c5ccc6c(c5)CCC6)c4n3)c2)CC1 [Cpd 23, 8-Indan-5-yl-2-[3-(4-methyl-piperazin-1-ylmethyl)-phenylamino]-5-oxo-5,8-dihydro-pyrido[2,3-d]pyrimidine-6-carboxylic acid amide]
11 | 1.1 | CCNC(=O)c1cn(-c2ccc3c(c2)CCC3)c2nc(Nc3cccc(N4CCNCC4)c3)ncc2c1=O [Cpd 54, 8-Indan-5-yl-5-oxo-2-(3-piperazin-1-yl-phenylamino)-5,8-dihydro-pyrido[2,3-d]pyrimidine-6-carboxylic acid ethyl amide]
8 | 0.53 | CNC(=O)c1cn(-c2ccc3c(c2)CCC3)c2nc(Nc3ccc(N4CC(C)NC(C)C4)cc3)ncc2c1=O (centres unmarked) [Cpd 44, 2-[4-(3,5-Dimethyl-piperazin-1-yl)-phenylamino]-8-indan-5-yl-5-oxo-5,8-dihydro-pyrido[2,3-d]pyrimidine-6-carboxylic acid methyl amide]
12 | 4.3 | CN(C)c1cccc(Nc2ncc3c(=O)c(C(N)=O)cn(-c4ccc5c(c4)CCC5)c3n2)c1 [Cpd 16, 2-(3-Dimethylamino-phenylamino)-8-indan-5-yl-5-oxo-5,8-dihydro-pyrido[2,3-d]pyrimidine-6-carboxylic acid amide]
30 | 1.6 | CNC(=O)c1cn(-c2ccc3c(c2)CCC3)c2nc(Nc3ccc(CCN4CCOCC4)cc3)ncc2c1=O [Cpd 28, 8-Indan-5-yl-2-[4-(2-morpholin-4-yl-ethyl)-phenylamino]-5-oxo-5,8-dihydro-pyrido[2,3-d]pyrimidine-6-carboxylic acid methyl amide]
15 | 0.97 | CNC(=O)c1cn(-c2ccc3c(c2)CCC3)c2nc(Nc3ccc(C4CCNCC4)cc3)ncc2c1=O [Cpd 50, 8-Indan-5-yl-5-oxo-2-(4-piperidin-4-yl-phenylamino)-5,8-dihydro-pyrido[2,3-d]pyrimidine-6-carboxylic acid methyl amide]
120 | – | CNC(=O)c1cn(C2CCCCC2)c2nc(Nc3ccc(CCN4CCOCC4)cc3)ncc2c1=O [Cpd 58, 8-Cyclohexyl-2-[4-(2-morpholin-4-yl-ethyl)-phenylamino]-5-oxo-5,8-dihydro-pyrido[2,3-d]pyrimidine-6-carboxylic acid methyl amide]
300 | – | CCNC(=O)c1cn(C2CC3CCC2C3)c2nc(Nc3ccc(N4CCN(C)CC4)cc3)ncc2c1=O (centres unmarked) [Cpd 83, 8-Bicyclo[2.2.1]hept-2-yl-2-[4-(4-methyl-piperazin-1-yl)-phenylamino]-5-oxo-5,8-dihydro-pyrido[2,3-d]pyrimidine-6-carboxylic acid ethylamide]
9 | – | CNC(=O)c1cn(-c2ccc3c(c2)CCC3)c2nc(Nc3cccc(N4CCN(C)CC4)c3)ncc2c1=O [Cpd 38, 8-indan-5-yl-2-[3-(4-methyl-piperazin-1-yl)-phenylamino]-5-oxo-5,8-dihydro-pyrido[2,3-d]pyrimidine-6-carboxylic acid methyl amide]

Source: US7642270B2, “5-oxo-5,8-dihydro-pyrido-pyrimidine as inhibitors of c-fms kinase” (Janssen Pharmaceutica N.V., priority 2005, dated 2010)
